ChEMBL document CHEMBL1134304, “Discovery of novel p-arylthio cinnamides as antagonists of leukocyte function-associated antigen-1/intercellular adhesion molecule-1 interaction. 4. Structure-activity relationship of substituents on the benzene ring of the cinnamide” (J Med Chem, 2001)

Key:
Integrin alpha-L = biological target: T1, Integrin alpha-L (Homo sapiens, UniProt P20701); assay: Inhibition of intercellular adhesion molecule-1 (ICAM-1) binding to recombinant LFA-1, range(130-170)
T1 sequence (P20701 whole entry): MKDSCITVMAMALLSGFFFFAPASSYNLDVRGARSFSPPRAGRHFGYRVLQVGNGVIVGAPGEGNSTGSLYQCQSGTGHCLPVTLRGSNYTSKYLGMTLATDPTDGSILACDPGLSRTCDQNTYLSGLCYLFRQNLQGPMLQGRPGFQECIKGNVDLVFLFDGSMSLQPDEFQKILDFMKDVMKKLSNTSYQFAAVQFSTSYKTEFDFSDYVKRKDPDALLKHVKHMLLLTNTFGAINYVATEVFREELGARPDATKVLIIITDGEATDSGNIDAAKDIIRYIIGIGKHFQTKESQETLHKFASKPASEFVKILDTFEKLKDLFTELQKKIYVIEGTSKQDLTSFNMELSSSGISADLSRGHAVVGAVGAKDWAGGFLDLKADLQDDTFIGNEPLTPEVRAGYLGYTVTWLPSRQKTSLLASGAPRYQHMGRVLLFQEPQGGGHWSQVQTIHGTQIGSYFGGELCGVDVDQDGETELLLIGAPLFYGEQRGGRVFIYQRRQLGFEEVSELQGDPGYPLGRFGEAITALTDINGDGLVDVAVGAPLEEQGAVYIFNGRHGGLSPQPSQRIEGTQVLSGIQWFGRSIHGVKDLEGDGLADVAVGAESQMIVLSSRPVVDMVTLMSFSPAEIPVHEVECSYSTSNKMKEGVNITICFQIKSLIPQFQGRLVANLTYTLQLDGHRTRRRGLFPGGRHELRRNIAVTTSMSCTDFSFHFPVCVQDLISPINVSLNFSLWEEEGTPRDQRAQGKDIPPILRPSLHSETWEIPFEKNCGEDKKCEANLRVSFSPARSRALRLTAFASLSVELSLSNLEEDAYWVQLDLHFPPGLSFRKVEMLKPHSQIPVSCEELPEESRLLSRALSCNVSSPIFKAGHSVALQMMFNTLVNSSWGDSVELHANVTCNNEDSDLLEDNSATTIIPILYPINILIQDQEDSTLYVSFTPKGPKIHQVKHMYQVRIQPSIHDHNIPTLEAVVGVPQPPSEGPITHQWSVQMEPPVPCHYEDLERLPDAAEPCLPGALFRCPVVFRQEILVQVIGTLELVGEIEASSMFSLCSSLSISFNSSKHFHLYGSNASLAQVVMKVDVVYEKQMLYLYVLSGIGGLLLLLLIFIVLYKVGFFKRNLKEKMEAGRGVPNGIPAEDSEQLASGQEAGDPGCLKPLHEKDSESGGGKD

[1] = biological target: Intercellular adhesion molecule (ICAM-1), Integrin alpha-L/beta-2 (Homo sapiens, UniProt P05107+P20701); assay: Inhibition of LFA-1 mediated JY-8 cell adhesion to ICAM-1, range (6-100); format: functional, cell-based
Intercellular adhesion molecule (ICAM-1), Integrin alpha-L/beta-2, sequence (P05362 whole entry, one chain of several, further chain): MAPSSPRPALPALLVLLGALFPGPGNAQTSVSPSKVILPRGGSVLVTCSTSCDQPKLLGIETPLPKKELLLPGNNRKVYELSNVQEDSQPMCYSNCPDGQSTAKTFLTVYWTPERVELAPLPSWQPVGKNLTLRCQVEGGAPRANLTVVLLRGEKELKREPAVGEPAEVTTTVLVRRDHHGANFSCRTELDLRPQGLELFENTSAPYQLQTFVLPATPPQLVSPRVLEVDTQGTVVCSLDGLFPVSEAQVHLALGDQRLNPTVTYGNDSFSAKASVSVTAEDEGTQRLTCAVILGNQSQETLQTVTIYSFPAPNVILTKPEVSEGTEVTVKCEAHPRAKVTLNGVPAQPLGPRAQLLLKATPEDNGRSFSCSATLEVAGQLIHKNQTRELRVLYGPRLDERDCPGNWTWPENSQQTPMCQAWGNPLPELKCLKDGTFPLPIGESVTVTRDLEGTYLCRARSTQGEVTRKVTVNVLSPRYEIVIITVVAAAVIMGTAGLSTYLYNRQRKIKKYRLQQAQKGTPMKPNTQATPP
Intercellular adhesion molecule (ICAM-1), Integrin alpha-L/beta-2, sequence (P05107 whole entry, one chain of several): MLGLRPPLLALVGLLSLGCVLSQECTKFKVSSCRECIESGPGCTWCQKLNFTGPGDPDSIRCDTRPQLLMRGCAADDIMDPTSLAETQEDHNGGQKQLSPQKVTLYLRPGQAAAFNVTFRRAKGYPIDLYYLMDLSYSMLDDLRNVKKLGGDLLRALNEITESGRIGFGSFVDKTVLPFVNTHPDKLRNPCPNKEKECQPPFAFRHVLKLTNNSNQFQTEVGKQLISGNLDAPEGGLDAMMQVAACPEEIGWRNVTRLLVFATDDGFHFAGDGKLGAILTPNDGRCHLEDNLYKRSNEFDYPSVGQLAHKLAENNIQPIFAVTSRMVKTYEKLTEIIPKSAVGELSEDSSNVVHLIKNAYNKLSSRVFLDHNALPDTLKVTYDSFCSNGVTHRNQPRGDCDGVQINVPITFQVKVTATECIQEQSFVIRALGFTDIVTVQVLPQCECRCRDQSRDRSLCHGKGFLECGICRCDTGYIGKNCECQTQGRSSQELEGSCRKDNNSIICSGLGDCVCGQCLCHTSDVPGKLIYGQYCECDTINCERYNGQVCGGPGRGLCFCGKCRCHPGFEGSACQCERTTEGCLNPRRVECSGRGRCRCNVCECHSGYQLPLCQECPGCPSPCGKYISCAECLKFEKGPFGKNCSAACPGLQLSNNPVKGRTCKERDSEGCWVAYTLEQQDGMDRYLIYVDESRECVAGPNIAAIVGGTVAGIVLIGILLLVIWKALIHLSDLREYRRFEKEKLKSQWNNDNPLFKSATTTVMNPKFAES

COc1ccccc1Sc1ccc(/C=C/C(=O)N2CCOCC2)cc1Cl
IC50 (Integrin alpha-L): 0.15 µM | IC50 [1]: 0.04 µM
